This note sets out measurements from patent US20080292619A1, “Pharmaceutical Composition Containing Meltrin Antagonist” (MOCHIDA PHARMACEUTICAL CO., LTD., priority 2004, published 2008).

This data set deals with human preadipocyte. The data set can be described thus: Adipocyte proliferation and differentiation, neutral fat accumulation (Adipo Red). The format is cell-based. Particulars: antibody final concentration 5 μL/mL; 15 days; AdipoRed. On the procedure: The differentiation medium was prepared by adding supplement kit PGM SingleQuots, #PT-9500, Lot.08101163 (Sanko Junyaku Co., Ltd.) to 100 mL of growth medium. 50 μL of the supernatant was removed from the 96 well plate prepared in Example 12, and 50 μL of the siRNA or the antisense oligonucleotide prepared in the differentiation medium was added, and incubation was conducted in a CO2 incubator for 5 days to 15 days.
The amount of neutral fat accumulated in the adipocyte was determined by fluorometry using Adipo Red stain.
After taking the 96 well plate out of the CO2 incubator, the plate was allowed to stand until it cooled to room temperature. The plate was centrifuged at 300 g (1200 rpm) for 10 minutes at room temperature to remove the medium. Next, the plate was gently washed with 200 μL/well of PBS (Sigma), and 200 μL/well of PBS was added to the well.
Next, 5 μL/well of Adipo Red Assay Reagent (Adipo Red, Cat. #PT-7009, Lot.3F0497, A Cambrex Company) was added, and the plate was allowed to stand at room temperature for at least 10 minutes to thereby stain the neutral fat that had accumulated in the adipocyte. The fluorescence intensity was measured in a fluorometer at an excitation wavelength of 485 nm and an emission wavelength of 535 nm to thereby determine the fat accumulation.
According to the method of Example 15, M82463 was added to the human preadipocyte incubation system at a concentration of 0.3 to 10 μg/mL so that the final concentration of the DMSO was 0.2%. As a control, a group having only the DMSO added to a final concentration of 0.2% was used.
After preparation of the antibody to the concentration of 0.100 mg/mL with physiological saline, 9 volumes of adipocyte differentiation medium was added to 1 volume of the antibody solution, and the solution was sterilized by filtering through a filter having a diameter of 0.22 μm (MILLEX-GV 0.22 μm Filter unit, 3slgv013SL, Lot. R2NN83622, MILLIPORE). […]

In the oligonucleotide strings, read from the 5' end, every base follows the letter of its sugar. An asterisk marks phosphorothioate; unmarked linkages are phosphodiester. Other units and linkages are bracketed, terminal groups are in braces. A string of capitals states the bases alone. d = 2'-deoxy (DNA)

For “2 (dC*dT*dG*dG*dT*dT*dA*dA*dT*dG*dG*dT*dT*dC*dA*dC*dA*dT*dC*dT) [compound 2]”, the Suppressive effect result is “++ (suppression by 50% or higher)”.
